Measurements: US9701689B2, “Substituted pyridines and pyridazines as CCR10 receptor inhibitors” (KYOWA HAKKO KIRIN CO., LTD., priority 2012, dated 2017)

Target: T1, human CCR10 (Homo sapiens, UniProt P46092)
T1 construct: expressed in transfected cells; host or cells: KJMGER8 cells (Namalwa cell-derived line), beta-estradiol-induced; hCCR10G16 cells
T1 sequence (P46092 1-362): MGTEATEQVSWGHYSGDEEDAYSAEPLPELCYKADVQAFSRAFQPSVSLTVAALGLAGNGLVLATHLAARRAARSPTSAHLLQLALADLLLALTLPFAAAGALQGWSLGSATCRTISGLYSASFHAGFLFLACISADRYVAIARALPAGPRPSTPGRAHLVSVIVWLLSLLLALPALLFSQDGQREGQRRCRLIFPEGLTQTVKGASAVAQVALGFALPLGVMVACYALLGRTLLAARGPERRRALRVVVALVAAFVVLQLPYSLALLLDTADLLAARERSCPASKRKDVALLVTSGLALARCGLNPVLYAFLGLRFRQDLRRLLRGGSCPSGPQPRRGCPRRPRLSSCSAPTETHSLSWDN
Assay: CCR10 antagonistic effect: calcium assay of human CCR10 (CTACK-induced increase of intracellular calcium in hCCR10G16 cells)
Assay type: cell-based
Conditions: at a concentration of not more than 1000 nmol/L; human CCR10-expressing hCCR10G16 cells, 300 nmol/L CTACK added; read-out: inhibition of increase in the calcium ion concentration
In short: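 Inhibition of CTACK-evoked calcium flux (max minus min Fluo-3 fluorescence over ~5 min, FDSS) was calculated against control in β-estradiol-induced human CCR10/Gα16 KJMGER8 cells, after 30 min compound preincubation at 37 °C; CTACK added from a 300 nmol/L solution.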

| Structure (SMILES) | inhibition at up to 1 µM [%] |
| --- | --- |
| Cc1c(Cl)ccc(Nc2cc(S(N)(=O)=O)ncc2C(=O)N2CCC(c3ccc(F)cc3)CC2)c1C [Compound 66, 4-(4-chloro-2,3-dimethylphenylamino)-5-[4-(4-fluorophenyl)piperidine-1-carbonyl]pyridine-2-sulfonamide] | ≥ 50 |
| Cc1cc(Nc2cc(S(N)(=O)=O)ncc2C(=O)N2CCC(c3ccc(F)cc3)CC2)c(F)cc1Cl [Compound 67, 4-(4-chloro-2-fluoro-5-methylphenylamino)-5-[4-(4-fluorophenyl)piperidine-1-carbonyl]pyridine-2-sulfonamide] | ≥ 50 |
| Cc1ccc(F)c(Nc2cc(S(N)(=O)=O)ncc2C(=O)N2CCC(c3ccc(F)cc3)CC2)c1 [Compound 68, 4-(2-fluoro-5-methylphenylamino)-5-[4-(4-fluorophenyl)piperidine-1-carbonyl]pyridine-2-sulfonamide] | ≥ 50 |
| COc1ccc(Cl)cc1Nc1cc(S(N)(=O)=O)ncc1C(=O)N1CCC(c2ccc(F)cc2)CC1 [Compound 69, 4-(5-chloro-2-methoxyphenylamino)-5-[4-(4-fluorophenyl)piperidine-1-carbonyl]pyridine-2-sulfonamide] | ≥ 50 |
| NS(=O)(=O)c1cc(Nc2cc(F)ccc2Cl)c(C(=O)N2CCC(c3ccc(F)cc3)CC2)cn1 [Compound 70, 4-(2-chloro-5-fluorophenylamino)-5-[4-(4-fluorophenyl)piperidine-1-carbonyl]pyridine-2-sulfonamide] | ≥ 50 |
| NS(=O)(=O)c1cc(Nc2cc(F)c(Cl)cc2Cl)c(C(=O)N2CCC(c3ccc(F)cc3)CC2)cn1 [Compound 71, 4-(2,4-dichloro-5-fluorophenylamino)-5-[4-(4-fluorophenyl)piperidine-1-carbonyl]pyridine-2-sulfonamide] | ≥ 50 |
| Cc1cccc(F)c1Nc1cc(S(N)(=O)=O)ncc1C(=O)N1CCC(c2ccc(F)cc2)CC1 [Compound 72, 4-(2-fluoro-6-methylphenylamino)-5-[4-(4-fluorophenyl)piperidine-1-carbonyl]pyridine-2-sulfonamide] | ≥ 50 |
| NS(=O)(=O)c1cc(Nc2c(F)cccc2F)c(C(=O)N2CCC(c3ccc(F)cc3)CC2)cn1 [Compound 73, 4-(2,6-difluorophenylamino)-5-[4-(4-fluorophenyl)piperidine-1-carbonyl]pyridine-2-sulfonamide] | ≥ 50 |
| NS(=O)(=O)c1cc(Nc2cccc(F)c2Cl)c(C(=O)N2CCC(c3ccc(F)cc3)CC2)cn1 [Compound 74, 4-(2-chloro-3-fluorophenylamino)-5-[4-(4-fluorophenyl)piperidine-1-carbonyl]pyridine-2-sulfonamide] | ≥ 50 |
| NS(=O)(=O)c1cc(Nc2ccc(Cl)c(F)c2Cl)c(C(=O)N2CCC(c3ccc(F)cc3)CC2)cn1 [Compound 75, 4-(2,4-dichloro-3-fluorophenylamino)-5-[4-(4-fluorophenyl)piperidine-1-carbonyl]pyridine-2-sulfonamide] | ≥ 50 |
| Cc1cccc(Nc2cc(S(N)(=O)=O)ncc2C(=O)N2CCC(c3ccc(F)cc3)CC2)c1F [Compound 76, 4-(2-fluoro-3-methylphenylamino)-5-[4-(4-fluorophenyl)piperidine-1-carbonyl]pyridine-2-sulfonamide] | ≥ 50 |
| Cc1c(Cl)ccc(Nc2cc(S(N)(=O)=O)ncc2C(=O)N2CCC(c3ccc(F)cc3)CC2)c1F [Compound 77, 4-(4-chloro-2-fluoro-3-methylphenylamino)-5-[4-(4-fluorophenyl)piperidine-1-carbonyl]pyridine-2-sulfonamide] | ≥ 50 |
| COc1ccc(Nc2cc(S(N)(=O)=O)ncc2C(=O)N2CCC(c3ccc(F)cc3)CC2)c(C)c1 [Compound 78, 5-[4-(4-fluorophenyl)piperidine-1-carbonyl]-4-(4-methoxy-2-methylphenylamino)pyridine-2-sulfonamide] | ≥ 50 |
| Cc1ccc(Nc2cc(S(N)(=O)=O)ncc2C(=O)N2CCC(c3ccc(F)cc3)CC2)cc1Cl [Compound 79, 4-(3-chloro-4-methylphenylamino)-5-[4-(4-fluorophenyl)piperidine-1-carbonyl]pyridine-2-sulfonamide] | ≥ 50 |
| NS(=O)(=O)c1cc(Nc2ccc(Cl)cc2F)c(C(=O)N2CCC(c3ccc(F)cc3)CC2)cn1 [Compound 80, 4-(4-chloro-2-fluorophenylamino)-5-[4-(4-fluorophenyl)piperidine-1-carbonyl]pyridine-2-sulfonamide] | ≥ 50 |
| NS(=O)(=O)c1cc(Nc2ccc(Cl)cc2Cl)c(C(=O)N2CCC(c3ccc(F)cc3)CC2)cn1 [Compound 81, 4-(2,4-dichlorophenylamino)-5-[4-(4-fluorophenyl)piperidine-1-carbonyl]pyridine-2-sulfonamide] | ≥ 50 |

| Structure (SMILES) | inhibition at up to 1 µM [%] |
| --- | --- |
| NS(=O)(=O)c1cc(Nc2ccc(Cl)cc2)c(C(=O)N2CCC(c3ccc(F)cc3)CC2)cn1 [Compound 82, 4-(4-chlorophenylamino)-5-[4-(4-fluorophenyl)piperidine-1-carbonyl]pyridine-2-sulfonamide] | ≥ 50 |
| Cc1cc(Nc2cc(S(N)(=O)=O)ncc2C(=O)N2CCC(c3ccc(F)cc3)CC2)ccc1F [Compound 83, 4-(4-fluoro-3-methylphenylamino)-5-[4-(4-fluorophenyl)piperidine-1-carbonyl]pyridine-2-sulfonamide] | ≥ 50 |
| COc1ccc(Nc2cc(S(N)(=O)=O)ncc2C(=O)N2CCC(c3ccc(F)cc3)CC2)cc1 [Compound 84, 5-[4-(4-fluorophenyl)piperidine-1-carbonyl]-4-(4-methoxyphenylamino)pyridine-2-sulfonamide] | ≥ 50 |
| COc1ccc(Nc2cc(S(N)(=O)=O)ncc2C(=O)N2CCC(c3ccc(F)cc3)CC2)cc1F [Compound 86, 4-(3-fluoro-4-methoxyphenylamino)-5-[4-(4-fluorophenyl)piperidine-1-carbonyl]pyridine-2-sulfonamide] | ≥ 50 |
| COc1ccc(Nc2cc(S(N)(=O)=O)ncc2C(=O)N2CCC(c3ccc(F)cc3)CC2)c(F)c1 [Compound 87, 4-(2-fluoro-4-methoxyphenylamino)-5-[4-(4-fluorophenyl)piperidine-1-carbonyl]pyridine-2-sulfonamide] | ≥ 50 |
| COc1ccc(Nc2cc(S(N)(=O)=O)ncc2C(=O)N2CCC(c3ccc(F)cc3)CC2)cc1C [Compound 88, 5-[4-(4-fluorophenyl)piperidine-1-carbonyl]-4-(4-methoxy-3-methylphenylamino)pyridine-2-sulfonamide] | ≥ 50 |
| COc1ccc(Nc2cc(S(N)(=O)=O)ncc2C(=O)N2CCC(c3ccc(F)cc3)CC2)cc1C(F)(F)F [Compound 89, 5-[4-(4-fluorophenyl)piperidine-1-carbonyl]-4-[4-methoxy-3-(trifluoromethyl)phenylamino]pyridine-2-sulfonamide] | ≥ 50 |
| NS(=O)(=O)c1cc(Nc2ccc(Br)cc2Cl)c(C(=O)N2CCC(c3ccc(F)cc3)CC2)cn1 [Compound 90, 4-(4-bromo-2-chlorophenylamino)-5-[4-(4-fluorophenyl)piperidine-1-carbonyl]pyridine-2-sulfonamide] | ≥ 50 |
| NS(=O)(=O)c1cc(Nc2ccc(Br)cc2F)c(C(=O)N2CCC(c3ccc(F)cc3)CC2)cn1 [Compound 91, 4-(4-bromo-2-fluorophenylamino)-5-[4-(4-fluorophenyl)piperidine-1-carbonyl]pyridine-2-sulfonamide] | ≥ 50 |
| COc1ccc(Nc2cc(S(N)(=O)=O)ncc2C(=O)N2CCC(c3ccc(F)cc3)CC2)c(Cl)c1 [Compound 92, 4-(2-chloro-4-methoxyphenylamino)-5-[4-(4-fluorophenyl)piperidine-1-carbonyl]pyridine-2-sulfonamide] | ≥ 50 |
| COc1ccc(C)c(Nc2cc(S(N)(=O)=O)ncc2C(=O)N2CCC(c3ccc(F)cc3)CC2)c1 [Compound 93, 5-[4-(4-fluorophenyl)piperidine-1-carbonyl]-4-(5-methoxy-2-methylphenylamino)pyridine-2-sulfonamide] | ≥ 50 |
| NS(=O)(=O)c1cc(Nc2ccc3c(c2)CCO3)c(C(=O)N2CCC(c3ccc(F)cc3)CC2)cn1 [Compound 94, 4-(2,3-dihydrobenzofuran-5-ylamino)-5-[4-(4-fluorophenyl)piperidine-1-carbonyl]pyridine-2-sulfonamide] | ≥ 50 |
| NS(=O)(=O)c1cc(Nc2ccccc2)c(C(=O)N2CCC(c3ccc(F)cc3)CC2)cn1 [Compound 95, 5-[4-(4-fluorophenyl)piperidine-1-carbonyl]-4-(phenylamino)pyridine-2-sulfonamide] | ≥ 50 |
| Cc1cccc(Nc2cc(S(N)(=O)=O)ncc2C(=O)N2CCC(c3ccc(F)cc3)CC2)c1 [Compound 96, 5-[4-(4-fluorophenyl)piperidine-1-carbonyl]-4-(m-tolylamino)pyridine-2-sulfonamide] | ≥ 50 |
| Cc1ccc(Nc2cc(S(N)(=O)=O)ncc2C(=O)N2CCC(c3ccc(F)cc3)CC2)cc1 [Compound 98, 5-[4-(4-fluorophenyl)piperidine-1-carbonyl]-4-(p-tolylamino)pyridine-2-sulfonamide] | ≥ 50 |
